Test results reported in patent US9901573B2, “Compositions, methods, and kits for regulating energy metabolism” (NuSirt Sciences, Inc., priority 2012, dated 2018).
Marks after values point to notes of the source that are not given here.

Key:
Format in all cases: cell-based
[1] = tested on: 3T3-L1 adipocytes; experiment: Glucose utilization (extracellular acidification) in adipocytes; conditions: FIG. 10
Method: (§1) Cell Culture: C2C12 and 3T3-L1 preadipocytes (American Type Culture Collection) were plated at a density of 8000 cells/cm^2 (10 cm^2 dish) and grown in Dulbecco's modified eagle's medium (DMEM) containing 10% fetal bovine serum (FBS), and antibiotics (growth medium) at 37° C. in 5% CO2. Confluent 3T3-L1 preadipocytes were induced to differentiate with a standard differentiation medium consisting of DMEM medium supplemented with 10% FBS, 250 nM dexamethasone, 0.5 mM 3-Isobutyl-1-methylxanthine (IBMX) and 1% penicillin-streptomycin. Preadipocytes were maintained in this differentiation medium for 3 days and subsequently cultured in growth medium. Cultures were re-fed every 2-3 days to allow >90% cells to reach fully differentiation before conducting chemical treatment. […]
(§2) Glucose Utilization: In the absence of a fatty acid source and oxidative metabolism, glycolysis and subsequent lactate production results in extracellular acidification, which was also measured using a Seahorse Bioscience XF24 analyzer. […] Data for each sample were normalized to the pre-glucose injection baseline for that sample and expressed as % change from that baseline. The area under of the curve of extracellular acidification change from baseline for each sample was the calculated and used for subsequent analysis.

[2] = tested on: 3T3-L1 adipocytes; experiment: Fatty acid oxidation (O2 consumption response to palmitate) in adipocytes; conditions: FIG. 8, % change from control
Method: as §1
Fatty acid oxidation: Cellular oxygen consumption was measured using a Seahorse Bioscience XF24 analyzer (Seahorse Bioscience, Billerica, Mass.) in 24-well plates at 37° C., as described by Feige et al (1) with slight modifications. […] Data for each sample were normalized to the pre-palmitate injection baseline for that sample and expressed as % change from that baseline. […] The area under of the curve of O2 consumption change from baseline for each sample was then calculated and used for subsequent analysis.

[3] = tested on: 3T3-L1 adipocytes; experiment: Intracellular Ca2+ by fura-2 imaging in adipocytes
Method: Cell culture: 3T3-L1 pre-adipocytes were incubated at a density of 8000 cells/cm^2 (10 cm^2 dish) and grown in the absence of insulin in Dulbecco's modified Eagle's medium (DMEM) containing 10% FBS and antibiotics (1% penicillin-streptomycin)(adipocyte medium) at 37° C. in 5% CO2 in air. Confluent pre-adipocytes were induced to differentiate with a standard differentiation medium consisting of DMEM-F10 (1:1, vol/vol) medium supplemented with 1% fetal bovine serum (FBS), 250 nM dexamethasone (DEXA), isobutylmethylxanthine (IBMX) (0.5 mM) and antibiotics. Pre-adipocytes were maintained in this differentiation medium for 3 days (unless specifically indicated) and subsequently cultured in adipocyte medium. Cultures were re-fed every 2-3 days to allow 90% cells to reach fully differentiation before treatment.
Intracellular Ca^2+ ([Ca^2+]i): [Ca^2+]i was measured using a fura-2 dual wavelength fluorescence imaging system. Adipocytes were plated and differentiated in 35 mm dishes with glass coverslips (P35G-0-14-C, MatTek Corporation). Prior to [Ca^2+]i measurement, cells were preincubated in serum-free medium overnight and rinsed with Hepes Balanced Salt Solution (HBSS) containing the following components (in mM): NaCl 138, CaCl2 1.8, MgSO4 0.8, NaH2PO4 0.9, NaHCO3 4, glucose 5, glutamine 6, Hepes 20, and bovine serum albumin 1%. Cells were loaded with fura-2 acetoxymethyl ester (AM) (10 μM) in the same buffer for 2 hr at 37° C. in a dark incubator with 5% CO2. To remove extracellular dye, cells were rinsed with HBSS 3 times and then postincubated at room temperature for an additional 1 hr for complete hydrolysis of cytoplasmic fura-2 AM. The dishes with dye-loaded cells were mounted on the stage of Nikon TMS-F fluorescence inverted microscope with a Cohu 4915 CCD camera. Fluorescent images were captured alternatively at excitation wavelength of […] with an emission wavelength of 520 nm. [Ca^2]i was calculated using a standard ratio equation. Each analysis evaluated responses of 8-10 representative whole cells. Images were analyzed with InCytIm2 version 4.62 imaging software (Intracellular Imaging, Cincinnati, Ohio). Images were calibrated using a fura-2 calcium imaging calibration kit (Molecular Probes, Eugene, Oreg.) to create a calibration curve in solution, and cellular calibration was accomplished using digitonin (25 μM) and pH 8.7 Tris-EGTA (100 mM) to measure maximal and minimal [Ca^2+]i levels.

[4] = tested on: C2C12 myotubes; experiment: Glucose utilization (extracellular acidification) in myotubes; conditions: FIG. 9
Method: as §1, §2

## CC(C)C[C@H](N)C(=O)O [Leucine, leucine]
[1]
  increase in glucose utilization: no independent significant effect
[2]
  increase in fatty acid oxidation: 181%
[3]; Leucine 0.25 mM
  Intracellular Ca2+: 75.2^b ± nM
[3]; Leucine 0.5 mM
  Intracellular Ca2+: 83.7^b ± nM
[4]
  increase in glucose utilization: no independent significant effect
